Patent publication US20250066351A1, “PYRAZOLO[1,5-A]PYRIDIN-2,3-YL AMIDES AS KV7 CHANNEL ACTIVATORS” (Biohaven Therapeutics Ltd., priority 2022, published 2025)

target: T1, hKv7.2/7.3 (Homo sapiens, UniProt O43525+O43526); experiment: Kv7.2/7.3 Activation Assay, QPatch planar patch-clamp single concentration screen; assay type: cell-based; settings: increase in current over baseline, Kv7.2/Kv7.3 co-expressing HEK cells, compound concentration 3 μM, steady-state current at end of 2 s pulse to −30 mV
T1 construct: host or cells: HEK cells, tetracycline-inducible expression
Protocol: The ability of compounds to potentiate K-currents in Kv7.2/7.3 containing HEK cells was assessed using planar patch-clamp on the QPatch automated screening platform.
Cell Line: The hKv7.2/7.3 cell line was obtained from Chantest (Cleveland, OH 44128) cat. #CT6147. These HEK cells will express the Kv7.2/7.3 ion channels when induced.
Cell Culture: Cells were maintained in a media containing DMEM/F12; 50/50 (GIBCO cat. #11330), 10% Fetal Bovine Serum (FBS) (GIBCO cat. #26140), 100 units/mL Penicillin-Streptomycin (GIBCO cat. #15140), 0.005 mg/mL Blasticidin (INVIVOGEN cat. #ant-bl-1), 0.5 mg/mL Geneticin (GIBCO cat. #10131), 0.1 mg/mL Zeocin (GIBCO cat. #R25001). Cells used in the electrophysiology assay were maintained in a media without Blasticidin, Geneticin and Zeocin for 2 days and channel expression was induced by adding tetracycline (BIOLINE cat. #BIO-87030) at a final concentration of […]. Cells were grown in T-175 flask to ˜75% confluency. Currents were recorded 24 hours after channel induction.
Compound Plates: Test compounds were prepared by performing serial dilutions on a Biomek NX^P (BECKMAN COULTER). Final dilutions were made in external recording solution with a final DMSO concentration of 0.1% DMSO. For single concentration screens each plate had 10 μM retigabine as a positive control and 0.1% DMSO as a negative control.
Electrophysiology: On the day of the experiment cells were washed with Hank's Balanced Salt Solution (HBBS) (GIBCO cat. #14175) and harvested with Tryple (GIBCO cat. #12604). Cells were then centrifuged at 2000 rpm for 5 minutes and resuspended in CHO—S-SFM (GIBCO cat. #12052) at […]. Cells were stirred for 30 minutes before experiments were started. External recording solution contained (in mM): NaCl (145), KCl (4), CaCl2 (2), MgCl2 (1), HEPES (10) and Glucose (10); pH was adjusted to 7.4 with NaOH and the osmolarity was adjusted to 300-305 mOsM with sucrose if necessary. Internal solution contained (in mM): KCl (125), KF (10), EGTA (5), Na2ATP (5), MgCl2 (3.2), HEPES (5); pH was adjusted to 7.2 with KOH and the osmolarity was adjusted to 298-302 mOsM with sucrose.
Potassium channel activity was measured on the QPatch HTX (Sophion Bioscience) using QPlates with 48-wells/plate. Each cell was taken as an independent experiment and only one compound was tested per well. Potassium channel activity was elicited by holding at −80 mV and stepping to −30 mV for 2 s followed by a 100 ms pulse to −120 mV.
Single concentration screen: Baseline conditions were obtained by recording 5 sweeps in the external solution only, this was repeated for three applications of the external solution. The effect of test compounds on elicited current was then assessed by recording 5 sweeps in the presence of a 3 μM compound solution. The steady-state current at the end of the 2 s pulse to −30 mV was measured to determine the fold increase from baseline.

| Structure (SMILES) | QPatch Kv7.2/7.3 Activity |
| --- | --- |
| CC(C)(C)CC(=O)Nc1nn2ccccc2c1C1CCC1 [Example 1, N-(3-cyclobutylpyrazolo[1,5-a]pyridin-2-yl)-3,3-dimethylbutanamide] | + (2.0-3.99 (+)) |
| CC(C)(C)CC(=O)Nc1nn2ccc(C(F)(F)F)cc2c1C1CCC1 [Example 2, N-(3-cyclobutyl-5-(trifluoromethyl)pyrazolo [1,5-a]pyridin-2-yl)-3,3-dimethylbutanamide] | + (2.0-3.99 (+)) |
| O=C(CC(C(F)(F)F)C(F)(F)F)Nc1nn2ccccc2c1C1CCC1 [Example 4, N-(3-cyclobutylpyrazolo[1,5-a]pyridin-2-yl)-4,4,4-trifluoro-3-(trifluoromethyl) butanamide] | +/− (1.2-1.99-fold (+/−)) |
| O=C(CC(C(F)(F)F)C(F)(F)F)Nc1nn2ccc(C(F)(F)F)cc2c1C1CCC1 [Example 5, N-(3-cyclobutyl-5-(trifluoromethyl)pyrazolo [1,5-a]pyridin-2-yl)-4,4,4-trifluoro-3-(trifluoromethyl) butanamide] | +/− (1.2-1.99-fold (+/−)) |
| CC(C)[C@H](C)C(=O)Nc1nn2ccccc2c1C1CCC1 [Example 6, (S)-N-(3-cyclobutylpyrazolo[1,5-a]pyridin-2-yl)-2,3-dimethylbutanamide] | + (2.0-3.99 (+)) |
| CC(C)[C@H](C)C(=O)Nc1nn2ccc(C(F)(F)F)cc2c1C1CCC1 [Example 7, (S)-N-(3-cyclobutyl-5-(trifluoromethyl)pyrazolo [1,5-a]pyridin-2-yl)-2,3-dimethylbutanamide] | + (2.0-3.99 (+)) |
| CC(C)[C@H](C)C(=O)Nc1nn2ccc(C#N)cc2c1C1CCC1 [Example 8, (S)-N-(5-cyano-3-cyclobutylpyrazolo[1,5-a]pyridin-2-yl)-2,3-dimethylbutanamide] | + (2.0-3.99 (+)) |
| CC(C)(O)CC(=O)Nc1nn2ccccc2c1C1CCC1 [Example 9, N-(3-cyclobutylpyrazolo[1,5-a]pyridin-2-yl)-3-hydroxy-3-methylbutanamide] | − (<1.2-fold (−)) |
| CC(C)(O)CC(=O)Nc1nn2ccc(C(F)(F)F)cc2c1C1CCC1 [Example 10, N-(3-cyclobutyl-5-(trifluoromethyl)pyrazolo [1,5-a]pyridin-2-yl)-3-hydroxy-3-methylbutanamide] | + (2.0-3.99 (+)) |
| CC(C)(O)CC(=O)Nc1nn2ccc(C#N)cc2c1C1CCC1 [Example 11, N-(5-cyano-3-cyclobutylpyrazolo[1,5-a]pyridin-2-yl)-3-hydroxy-3-methylbutanamide] | +/− (1.2-1.99-fold (+/−)) |
| CC(C)(O)CC(=O)Nc1nn2ccc(Br)cc2c1C1CCC1 [Example 12, N-(5-bromo-3-cyclobutylpyrazolo[1,5-a]pyridin-2-yl)-3-hydroxy-3-methylbutanamide] | + (2.0-3.99 (+)) |
| CC(C)(O)CC(=O)Nc1nn2ccc(C(F)(F)F)cc2c1-c1ccccc1 [Example 13, 3-hydroxy-3-methyl-N-(3-phenyl-5-(trifluoromethyl)pyrazolo [1,5-a]pyridin-2-yl)butanamide] | + (2.0-3.99 (+)) |

Continued, values first:

| QPatch Kv7.2/7.3 Activity | Structure (SMILES) |
| --- | --- |
| +/− (1.2-1.99-fold (+/−)) | COc1ccn2nc(NC(=O)CC(C)(C)O)c(C3CCC3)c2c1 [Example 16, N-(3-cyclobutyl-5-methoxypyrazolo[1,5-a]pyridin-2-yl)-3-hydroxy-3-methylbutanamide] |
| + (2.0-3.99 (+)) | CC(C)(O)CC(=O)Nc1nn2ccc(C(F)(F)F)cc2c1-c1ccc(Cl)cc1 [Example 17, N-(3-(4-chlorophenyl)-5-(trifluoromethyl)pyrazolo [1,5-a]pyridin-2-yl)-3-hydroxy-3-methylbutanamide] |
| + (2.0-3.99 (+)) | Cc1ccc(-c2c(NC(=O)CC(C)(C)O)nn3ccc(C(F)(F)F)cc23)cc1 [Example 18, 3-hydroxy-3-methyl-N-(3-(p-tolyl)-5-(trifluoromethyl)pyrazolo [1,5-a]pyridin-2-yl)butanamide] |
| + (2.0-3.99 (+)) | CC(C)(O)CC(=O)Nc1nn2c(Br)cccc2c1C1CCC1 [Example 19, N-(7-bromo-3-cyclobutylpyrazolo[1,5-a]pyridin-2-yl)-3-hydroxy-3-methylbutanamide] |
| + (2.0-3.99 (+)) | O=C(CC1(O)CCCC1)Nc1nn2ccc(Cl)cc2c1C1CCC1 [Example 20, N-(5-chloro-3-cyclobutylpyrazolo[1,5-a]pyridin-2-yl)-2-(1-hydroxycyclopentyl) acetamide] |
| + (2.0-3.99 (+)) | O=C(CC1(O)CCCC1)Nc1nn2ccc(C(F)(F)F)cc2c1C1CCC1 [Example 21, N-(3-cyclobutyl-5-(trifluoromethyl)pyrazolo [1,5-a]pyridin-2-yl)-2-(1-hydroxycyclopentyl) acetamide] |
| + (2.0-3.99 (+)) | O=C(CC1(O)CCC1)Nc1nn2ccc(C(F)(F)F)cc2c1-c1ccc(F)cc1 [Example 22, N-(3-(4-fluorophenyl)-5-(trifluoromethyl)pyrazolo [1,5-a]pyridin-2-yl)-2-(1-hydroxycyclobutyl) acetamide] |
| + (2.0-3.99 (+)) | CC(O)(CC(=O)Nc1nn2ccc(C(F)(F)F)cc2c1C1CCC1)C1CCC1 (centres unmarked) [Example 23, 3-cyclobutyl-N-(3-cyclobutyl-5-(trifluoromethyl)pyrazolo [1,5-a]pyridin-2-yl)-3-hydroxybutanamide] |
| + (2.0-3.99 (+)) | COc1ccn2nc(NC(=O)CC(C)(O)C3CCCC3)c(C3CCC3)c2c1 (centres unmarked) [Example 26, N-(3-cyclobutyl-5-methoxypyrazolo[1,5-a]pyridin-2-yl)-3-cyclopentyl-3-hydroxybutanamide] |
| + (2.0-3.99 (+)) | CC(O)(CC(=O)Nc1nn2ccc(C(F)(F)F)cc2c1C1CCC1)c1ccccc1 (centres unmarked) [Example 27, N-(3-cyclobutyl-5-(trifluoromethyl)pyrazolo [1,5-a]pyridin-2-yl)-3-hydroxy-3-phenylbutanamide] |
| +/− (1.2-1.99-fold (+/−)) | CC(O)(CC(=O)Nc1nn2ccc(C#N)cc2c1C1CCC1)c1ccccc1 (centres unmarked) [Example 28, N-(5-cyano-3-cyclobutylpyrazolo[1,5-a]pyridin-2-yl)-3-hydroxy-3-phenylbutanamide] |
| ++ (4.0-5.99 (++)) | C[C@](O)(CC(=O)Nc1nn2ccc(C(F)(F)F)cc2c1C1CCC1)c1ccccc1 [Example 29, (S)-N-(3-cyclobutyl-5-(trifluoromethyl)pyrazolo [1,5-a]pyridin-2-yl)-3-hydroxy-3-phenylbutanamide] |
| + (2.0-3.99 (+)) | C[C@](O)(CC(=O)Nc1nn2ccc(C#N)cc2c1C1CCC1)c1ccccc1 [Example 30, (S)-N-(5-cyano-3-cyclobutylpyrazolo[1,5-a]pyridin-2-yl)-3-hydroxy-3-phenylbutanamide] |
| + (2.0-3.99 (+)) | C[C@](O)(CC(=O)Nc1nn2ccc(Cl)cc2c1C1CCC1)c1ccccc1 [Example 31, (S)-N-(5-chloro-3-cyclobutylpyrazolo[1,5-a]pyridin-2-yl)-3-hydroxy-3-phenylbutanamide] |
| + (2.0-3.99 (+)) | C[C@](O)(CC(=O)Nc1nn2ccc(C(F)(F)F)cc2c1-c1ccc(F)cc1)c1ccccc1 [Example 32, (S)-N-(3-(4-fluorophenyl)-5-(trifluoromethyl)pyrazolo [1,5-a]pyridin-2-yl)-3-hydroxy-3-phenylbutanamide] |
| + (2.0-3.99 (+)) | C[C@](O)(CC(=O)Nc1nn2c(Br)cccc2c1C1CCC1)c1ccccc1 [Example 33, (S)-N-(7-bromo-3-cyclobutylpyrazolo[1,5-a]pyridin-2-yl)-3-hydroxy-3-phenylbutanamide] |
| − (<1.2-fold (−)) | C[C@@](O)(CC(=O)Nc1nn2ccc(C(F)(F)F)cc2c1C1CCC1)c1ccccc1 [Example 34, (R)-N-(3-cyclobutyl-5-(trifluoromethyl)pyrazolo [1,5-a]pyridin-2-yl)-3-hydroxy-3-phenylbutanamide] |
